Measurements reported in US11564923B2, “Compounds and pharmaceutical compositions thereof for the treatment of inflammatory disorders” (Galapagos NV, priority 2017, dated 2023).
pIC50: −log10 of the molar value.

How the values were obtained:
Type in all cases: biochemical
[1] = target: Recombinant human JAK3 catalytic domain (amino acids 781-1124) (Homo sapiens, UniProt P52333); assay: JAK3 inhibition assay
Description: After 45 min at 30° C., reactions are stopped by adding 25 μL/well of 150 mM phosphoric acid. […] Plates are washed 6 times with 300 μL per well of a 75 mM phosphoric acid solution and the bottom of the plates is sealed. […] Kinase activity is calculated by subtracting counts per min (cpm) obtained in the presence of a positive control inhibitor (10 μM staurosporine) from cpm obtained in the presence of vehicle. The ability of a test compound to inhibit this activity (or percentage inhibition) is determined as: […]
cpm test compound=cpm determined for sample with test compound present cpm control=cpm determined for sample with positive control inhibitor cpm vehicle=cpm determined in the presence of vehicle
(§1) Dose dilution series were prepared for the compounds enabling the testing of dose-response effects in the JAK3 assay and the calculation of the IC50 for each compound. Each compound is routinely tested at concentration of 20 μM followed by a 1/5 serial dilution, 10 points in a final concentration of 1% DMSO.

[2] = target: T1, Recombinant human JAK1 (catalytic domain, amino acids 866-1154) (Homo sapiens, UniProt P23458); assay: JAK1 inhibition assay; details: read-out: JAK1 potency IC50
T1 construct: catalytic domain, amino acids 866-1154
Description: (§2) After 60 min at room temperature, reactions are stopped by adding 20 μL/well of detection mixture (1× detection buffer (Perkin Elmer, catalog number CR97-100), 0.5 nM Europium-anti-phosphotyrosine (PT66) (Perkin Elmer, catalog number AD0068/AD0069), 10 mM EDTA). […] Kinase activity is calculated by subtracting the ratio obtained in the presence of a positive control inhibitor (1 μM staurosporine) from the ratio obtained in the presence of vehicle. The ability of a test compound to inhibit this activity (or percentage inhibition) is determined as:
(§3) [formula] wherein Fluorescent ratio test compound=ratio RFU665/RFU615*1000 determined for sample with test compound present Fluorescent ratio control=ratio RFU665/RFU615*1000 determined for sample with positive control inhibitor Fluorescent ratio vehicle=ratio RFU665/RFU615*1000 determined in the presence of vehicle
as §1, with “JAK1” for “JAK3”, “the” for “each”, “DMSO. […] The data are expressed as the average IC50 from the assays.” for “DMSO.”

[3] = target: T2, Recombinant human TYK2 catalytic domain (amino acids 871-1187) (Homo sapiens, UniProt P29597); assay: TYK2 radioactive assay polyGT substrate; further: 0.1 µM ATP
T2 construct: catalytic domain (amino acids 871-1187)
T2 sequence (P29597 871-1187): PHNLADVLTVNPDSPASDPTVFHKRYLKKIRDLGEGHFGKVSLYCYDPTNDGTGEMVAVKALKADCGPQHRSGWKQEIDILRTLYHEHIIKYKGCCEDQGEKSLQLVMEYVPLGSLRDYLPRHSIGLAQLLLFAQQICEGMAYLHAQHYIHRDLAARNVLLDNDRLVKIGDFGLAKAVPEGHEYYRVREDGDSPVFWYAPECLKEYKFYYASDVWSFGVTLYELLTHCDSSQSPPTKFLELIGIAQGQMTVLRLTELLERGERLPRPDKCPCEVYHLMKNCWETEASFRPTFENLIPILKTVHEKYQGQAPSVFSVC
In short: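 Reaction at 30° C. for 120 min, ended with 150 mM phosphoric acid, washed, counted; percent inhibition scaled between vehicle and 10 μM staurosporine cpm.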

[4] = target: T3, Recombinant human JAK2 (catalytic domain, amino acids 808-1132) (Homo sapiens, UniProt O60674); assay: JAK2 inhibition assay; details: read-out: JAK2 potency IC50; further: 0.7 µM ATP
T3 construct: catalytic domain, amino acids 808-1132
Description: as §2, with “CR97-100) with” for “CR97-100),”, “AD0068/AD0069) and” for “AD0068/AD0069),”
as §3
as §1, with “are” for “were”, “compound” for “the compounds”, “JAK2” for “JAK3”, “the” for “each”, “DMSO. […] The data are expressed as the average IC50 from the assays.” for “DMSO.”

Sequence of Recombinant human JAK3 catalytic domain (amino acids 781-1124) (P52333 781-1124): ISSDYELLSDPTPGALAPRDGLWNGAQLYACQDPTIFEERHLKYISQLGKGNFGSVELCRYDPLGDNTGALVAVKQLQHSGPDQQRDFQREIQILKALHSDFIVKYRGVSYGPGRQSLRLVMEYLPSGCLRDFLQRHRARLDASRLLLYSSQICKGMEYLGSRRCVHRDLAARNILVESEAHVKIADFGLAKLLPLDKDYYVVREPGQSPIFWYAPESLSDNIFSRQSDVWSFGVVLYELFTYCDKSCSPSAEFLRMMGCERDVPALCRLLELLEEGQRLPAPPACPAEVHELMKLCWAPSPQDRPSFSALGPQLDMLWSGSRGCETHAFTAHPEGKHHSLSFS
T1 sequence (P23458 866-1154): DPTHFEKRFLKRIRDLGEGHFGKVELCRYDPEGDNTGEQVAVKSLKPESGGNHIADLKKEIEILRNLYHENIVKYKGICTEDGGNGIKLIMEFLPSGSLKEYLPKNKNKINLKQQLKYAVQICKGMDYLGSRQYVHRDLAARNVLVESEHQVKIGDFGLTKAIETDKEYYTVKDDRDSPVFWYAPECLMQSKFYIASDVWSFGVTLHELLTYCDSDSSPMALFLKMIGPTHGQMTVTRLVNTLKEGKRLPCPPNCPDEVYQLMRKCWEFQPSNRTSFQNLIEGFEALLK
T3 sequence (O60674 808-1132): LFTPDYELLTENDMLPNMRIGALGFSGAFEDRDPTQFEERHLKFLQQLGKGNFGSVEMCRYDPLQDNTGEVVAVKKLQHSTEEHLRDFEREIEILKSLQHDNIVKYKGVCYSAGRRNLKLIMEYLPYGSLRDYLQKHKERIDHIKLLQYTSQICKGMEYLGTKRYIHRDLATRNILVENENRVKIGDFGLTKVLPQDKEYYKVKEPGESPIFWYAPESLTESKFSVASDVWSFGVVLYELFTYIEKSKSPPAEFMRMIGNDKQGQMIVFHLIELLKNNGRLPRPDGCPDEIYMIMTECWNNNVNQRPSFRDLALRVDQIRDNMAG

CN(c1cc(Nc2cc(N)ncn2)c2ncn(C)c2n1)[C@@H]1CCC[C@@H](C#N)C1 (racemic) [Compound 13, (±)-(1R,3R)-3-{[7-(6-Amino-pyrimidin-4-ylamino)-3-methyl-3H-imidazo[4,5-b]pyridin-5-yl]-methyl-amino}-cyclohexanecarbonitrile] was tested, and the pIC50 [1] was 8.02, the pIC50 [2] was 7.61 and the pIC50 [3] was 8.72. The pIC50 [4] was 8.50.

Compound Cc1cc(C#N)ncc1Oc1cc(Nc2ccc(C(=O)NC3CCC(O)C3)cn2)c2ncn(C)c2n1 (racemic) [Compound 139, 6-[[5-(6-cyano-4-methylpyridin-3-yl)oxy-3-methylimidazo[4,5-b]pyridin-7-yl]amino]-N-[rac-(1R,3R)-3-hydroxycyclopentyl]pyridine-3-carboxamide] has a pIC50 [1] of 6.17, a pIC50 [2] of 7.47 and a pIC50 [3] of 8.25. For the same compound, the pIC50 [4] was 7.63.

With Cc1cc(C#N)ncc1N(CCCO)c1cc(Nc2cc(N)ncn2)c2ncn(C)c2n1 [Compound 5, 5-[[7-(6-Amino-pyrimidin-4-ylamino)-3-methyl-3H-imidazo[4,5-b]pyridin-5-yl]-(3-hydroxy-propyl)-amino]-4-methyl-pyridine-2-carbonitrile] the pIC50 [1] was 6.48, the pIC50 [2] was 7.63 and the pIC50 [3] was 9.02. It also gave a pIC50 [4] of 8.16.

With C[C@H](C1CC1)N(C)c1cc(Nc2cc(N)ncn2)c2ncn(C)c2n1 [Compound 16, N7-(6-aminopyrimidin-4-yl)-N5-[(1R)-1-cyclopropylethyl]-N5,3-dimethyl-imidazo[4,5-b]pyridine-5,7-diamine] the pIC50 [1] was 6.66, the pIC50 [2] was 7.15 and the pIC50 [3] was 7.87. For the same compound, the pIC50 [4] was 7.60.

For COCCCNc1cc(Nc2cc(Oc3cnc(C#N)cc3C)nc3c2ncn3C)ncn1 [Compound 32, 5-{7-[6-(3-Methoxy-propylamino)-pyrimidin-4-ylamino]-3-methyl-3H-imidazo[4,5-b]pyridin-5-yloxy}-4-methyl-pyridine-2-carbonitrile], the pIC50 [1] was 6.22, the pIC50 [2] was 6.93 and the pIC50 [3] was 8.22. It also gave a pIC50 [4] of 7.58.

Compound Cc1cc(C#N)ncc1Oc1cc(Nc2cc(NCCCO)ncn2)c2ncn(C)c2n1 [Compound 34, 5-{7-[6-(3-Hydroxy-propylamino)-pyrimidin-4-ylamino]-3-methyl-3H-imidazo[4,5-b]pyridin-5-yloxy}-4-methyl-pyridine-2-carbonitrile] has a pIC50 [1] of 5.96, a pIC50 [2] of 7.00 and a pIC50 [3] of 8.26. The pIC50 [4] was 7.63.

Cc1cc(C#N)ncc1Oc1cc(Nc2cc(NCC3COCCO3)ncn2)c2ncn(C)c2n1 (stereo not drawn) [Compound 35, 5-(7-{6-[([1,4]Dioxan-2-ylmethyl)-amino]-pyrimidin-4-ylamino}-3-methyl-3H-imidazo[4,5-b]pyridin-5-yloxy)-4-methyl-pyridine-2-carbonitrile] gave a pIC50 [1] of 6.34, a pIC50 [2] of 7.28 and a pIC50 [3] of 8.64. For the same compound, the pIC50 [4] was 7.69.

With COC(C)CCNc1cc(Nc2cc(Oc3cnc(C#N)cc3C)nc3c2ncn3C)ncn1 (stereo not drawn) [Compound 37, 5-{7-[6-(3-Methoxy-butylamino)-pyrimidin-4-ylamino]-3-methyl-3H-imidazo[4,5-b]pyridin-5-yloxy}-4-methyl-pyridine-2-carbonitrile] the pIC50 [1] was 6.36, the pIC50 [2] was 7.07 and the pIC50 [3] was 8.44. For the same compound, the pIC50 [4] was 7.70.

For CCNC(=O)c1cnc(Nc2cc(Oc3cnc(C#N)cc3C)nc3c2ncn3C)cc1C [Compound 64, 6-[[5-[(6-cyano-4-methyl-3-pyridyl)oxy]-3-methyl-imidazo[4,5-b]pyridin-7-yl]amino]-N-ethyl-4-methyl-pyridine-3-carboxamide], the pIC50 [1] was 5.49, the pIC50 [2] was 6.46 and the pIC50 [3] was 7.29. It also gave a pIC50 [4] of 6.67.

Cc1cc(C#N)ncc1Nc1cc(Nc2ccc(C(=O)N(C)C)nn2)c2ncn(C)c2n1 [Compound 76, 6-[[5-[(6-cyano-4-methyl-3-pyridyl)amino]-3-methyl-imidazo[4,5-b]pyridin-7-yl]amino]-N,N-dimethyl-pyridazine-3-carboxamide] showed a pIC50 [1] of 6.24, a pIC50 [2] of 6.70 and a pIC50 [3] of 8.17. For the same compound, the pIC50 [4] was 7.70.

Compound CCNC(=O)c1ccc(Nc2cc(Oc3cnc(C#N)cc3C)nc3c2ncn3C)nc1C [Compound 78, 6-[[5-[(6-cyano-4-methyl-3-pyridyl)oxy]-3-methyl-imidazo[4,5-b]pyridin-7-yl]amino]-N-ethyl-2-methyl-pyridine-3-carboxamide] has a pIC50 [1] of 6.13, a pIC50 [2] of 7.22 and a pIC50 [3] of 8.01. It also gave a pIC50 [4] of 7.50.

For Cc1cc(C#N)ncc1Oc1cc(Nc2ccc(C(N(C)C)C(F)(F)F)cn2)c2ncn(C)c2n1 (stereo not drawn) [Compound 79], the pIC50 [1] was 6.24, the pIC50 [2] was 7.73 and the pIC50 [3] was 8.45. It also gave a pIC50 [4] of 8.25.

CC(Nc1cc(Nc2cc(N)ncn2)c2ncn(C)c2n1)C1CCC1 (stereo not drawn) [Compound 94, N7-(6-aminopyrimidin-4-yl)-N5-(1-cyclobutylethyl)-3-methyl-imidazo[4,5-b]pyridine-5,7-diamine] was tested, and the pIC50 [1] was 7.06, the pIC50 [2] was 6.66 and the pIC50 [3] was 7.51. It also gave a pIC50 [4] of 7.40.

In the case of Cn1cnc2c(Nc3cc(N)ncn3)cc(NC(C3CC3)C3CC3)nc21 [Compound 95, N7-(6-aminopyrimidin-4-yl)-N5-(dicyclopropylmethyl)-3-methyl-imidazo[4,5-b]pyridine-5,7-diamine], the pIC50 [1] was 6.75, the pIC50 [2] was 6.60 and the pIC50 [3] was 7.58. For the same compound, the pIC50 [4] was 7.42.

CC(C)[C@@H](Nc1cc(Nc2ccc(C(=O)N(C)C)cn2)c2ncn(C)c2n1)C(F)(F)F [Compound 97, N,N-dimethyl-6-[[3-methyl-5-[[(1R)-2-methyl-1-(trifluoromethyl)propyl]amino]imidazo[4,5-b]pyridin-7-yl]amino]pyridine-3-carboxamide] was tested, and the pIC50 [1] was 7.44, the pIC50 [2] was 7.66 and the pIC50 [3] was 8.51. It also gave a pIC50 [4] of 8.20.

In the case of Cc1cc(C#N)ncc1Oc1cc(Nc2ccc(C(=O)NCCN(C)C)cn2)c2ncn(C)c2n1 [Compound 99, 6-[[5-[(6-cyano-4-methyl-3-pyridyl)oxy]-3-methyl-imidazo[4,5-b]pyridin-7-yl]amino]-N-(2-dimethylaminoethyl)pyridine-3-carboxamide], the pIC50 [1] was 6.04, the pIC50 [2] was 6.96 and the pIC50 [3] was 7.75. For the same compound, the pIC50 [4] was 7.29.

For COCCCNC(=O)c1ccc(Nc2cc(Oc3cnc(C#N)cc3C)nc3c2ncn3C)nc1 [Compound 100, 6-[[5-[(6-cyano-4-methyl-3-pyridyl)oxy]-3-methyl-imidazo[4,5-b]pyridin-7-yl]amino]-N-(3-methoxypropyl)pyridine-3-carboxamide], the pIC50 [1] was 6.04, the pIC50 [2] was 7.20 and the pIC50 [3] was 8.09. For the same compound, the pIC50 [4] was 7.40.

Cc1cc(C#N)ncc1Oc1cc(Nc2ccc(N3CCC(N(C)C)CC3)cn2)c2ncn(C)c2n1 [Compound 181, 5-[7-[[5-[4-(dimethylamino)-1-piperidyl]-2-pyridyl]amino]-3-methyl-imidazo[4,5-b]pyridin-5-yl]oxy-4-methyl-pyridine-2-carbonitrile] showed a pIC50 [1] of 6.40, a pIC50 [2] of 6.82 and a pIC50 [3] of 8.15. It also gave a pIC50 [4] of 7.43.
